Results published in patent US8658424B2, “Myelinating oligodendrocyte precursor populations” (Wisconsin Alumni Research Foundation, priority 2007, dated 2014).
Entries after “also recorded” stand apart in the source; their conditions may differ.

What was measured:
Type in all cases: cell-based, human
[1] = system: hESC-derived Olig2 progenitors; test: Differentiation of Olig2 progenitors to OPCs in glial differentiation medium (marker immunostaining); conditions: for OLIG2/PDGFRa double positive OPCs: day 100, treatment from Olig2 induction; for PDGFRα+ OPCs (in words): treated between days 24 and 35, later OPC differentiation; for timing of OPC differentiation (PDGFRα, NG2, Sox10): added to Olig2/Nkx2.2 progenitors in glial differentiation medium
Description: Olig2-expressing progenitors usually appeared around day 24 (Li et al., supra). […] FGF2 (R&D; 10 ng/ml) and/or EGF (Sigma; 10 ng/ml) was added to examine their effect on motor neuron differentiation and progenitor proliferation.
From the 5th week of differentiation, FGF2 was replaced with a cocktail of cytokines consisting of PDGFAA, IGF1 and NT3 (all at 10 ng/ml). Du Z, et al., “Induced expression of Olig2 is sufficient for oligodendrocyte specification but not for motoneuron specification and astrocyte repression,” Mol. Cellular Neurosci. […] SHH or purmorphamine was removed around 10 weeks when PDGFRα+ OPCs appeared. The cultures were fed every other day and the progenitor clusters were broken into smaller pieces with polished glass Pasteur pipette every week.
(§1) Immuno-fluorescent staining on coverslip cultures and free-floating brain sections was described previously. […] Specificity of the antibodies was first tested in embryonic brain and spinal cord tissues. Li et al., supra; and Pankratz et al., supra. Negative controls without primary and secondary antibody were performed in all experiments to monitor non-specific staining. The stained samples were visualized with a Nikon TE600 fluorescent scope equipped with a SPOT camera and software (Diagnostic Instruments; Sterling Heights, Mich.), as well as a Nikon C1 laser scanning confocal microscope.
(§2) At least three coverslips were counted for every group. The experiments were repeated three times with different batches of cells.

[2] = system: hESC-derived neuroepithelial cells; test: Olig2 induction from hESC-derived neuroepithelial cells (immunostaining); conditions: for Olig2-expressing progenitors: treatment during Olig2 induction, SHH 100 ng/ml, purmorphamine 1 μM, day 35
Description: hESCs (line H1 and H9; WiCell Research Institute; Madison, Wis.) were cultured on irradiated mouse embryonic fibroblasts (MEF) in a 6-well plate. […] Differentiated colonies were marked and removed physically with a pipette tip and the stem cell state was periodically monitored by expression of Oct4 and SSEA4.
hESCs were then differentiated to primitive neuroepithelial cells in an adherent colony culture for 10 days in a neural induction medium consisting of DMEM/F12, N2 supplement and non-essential amino acids, as detailed elsewhere. […] Chem. Soc. […] The neuroepithelial colonies were gently blown off the surface by a pipette and grown as floating clusters in suspension in the same medium.
as §1, §2

[3] = system: hESC-derived Olig2 progenitors; test: Olig2/Nkx2.2 co-expression in Olig2 progenitors (immunostaining); conditions: for OLIG2+/NKX2.2+ population: gliogenic progenitors treated day 35 to 50 (purmorphamine 1 uM, cyclopamine 5 μM), examined day 50; for cells expressing Olig2 and/or Nkx2.2: treated day 24 to 35, examined day 35
Excerpt: (§3) Olig2-expressing progenitors usually appeared around day 24 (Li et al., supra). The culture was then switched to a glial differentiation medium (modified Bottenstein-Sato medium; see, Bottenstein J, et al., “The growth of cells in serum-free hormone-supplemented media,” Methods Enzymol. 58:94-109 (1979); and Bottenstein J, et al., “Selective survival of neurons from chick embryo sensory ganglionic dissociates utilizing serum-free supplemented medium,” Exp. Cell Res. 125:183-190 (1980)) consisting of DMEM, N1 supplement (Sigma; St. Louis, Mo.), T3 (Sigma); 60 ng/ml), biotin (Sigma; 100 ng/ml) and cAMP (Sigma; 1 uM). FGF2 (R&D; 10 ng/ml) and/or EGF (Sigma; 10 ng/ml) was added to examine their effect on motor neuron differentiation and progenitor proliferation.
(§4) Immuno-fluorescent staining on coverslip cultures and free-floating brain sections was described previously. Zhang et al. (2001), supra; Pankratz et al., supra. The following primary antibodies were used in the present study: anti-Olig2 (goat IgG, 1:500, sc-19969, Santa Cruz Biotechnology; Santa Cruz, Calif.), anti-βIII-tubulin (TuJ1, mlgG 1:5000, Sigma), anti-GFAP (mlgG 1:5000, Chemicon), anti-NG2 (mlgG 1:400, BD Pharmingen), anti-HB9 (mlgG 1:50, DSHB, Iowa City, Iowa), anti-PDGFRα (rat IgG 1:1000, gift from Dr. Stallcup WILLIAM STALLCUP, Burnham Institute for Medical Research, burnham.org/default.asp?contentID=203 on the World Wide Web) (Nishiyama A, et al., “Colocalization of NG2 proteoglycan and PDGF alpha-receptor on O2A progenitor cells in the developing rat brain,” J. Neurosci. Res. 43:299-314 (1996)), anti-O4 (1:50, mouse IgM, Chemincon MAB345), MBP (1:500, rabbit IgG, Chemicon), anti-human nuclei (1:200, mouse IgG, Chemicon). Specificity of the antibodies was first tested in embryonic brain and spinal cord tissues. Li et al., supra; and Pankratz et al., supra. Negative controls without primary and secondary antibody were performed in all experiments to monitor non-specific staining. The stained samples were visualized with a Nikon TE600 fluorescent scope equipped with a SPOT camera and software (Diagnostic Instruments; Sterling Heights, Mich.), as well as a Nikon C1 laser scanning confocal microscope.
(§5) For quantification of stained cell populations, optical fields were randomly selected with fixed ROI (region of interest) frame using cell counter plugin of ImageJ (Abramoff M, et al., “Image Processing with ImageJ,” Biophoton. Int. 11:36-42 (2004)) from independent coverslips of the same group. At least three coverslips were counted for every group. The experiments were repeated three times with different batches of cells. Statistical analyses were performed using ANOVA with R (R_Development_Core_Team, 2007).
Continued SHH signaling was required for maintaining gliogenic Olig2 progenitors. Gliogenic Olig2 progenitor cultures (day 35) were grown in the presence or absence of purmorphamine (1 uM), or the presence of cyclopamine (5 μM) for 2 weeks. […] Thus, SHH signaling was continuously needed to maintain the Olig2 progenitors, even though exogenous SHH is now not necessary.

[4] = system: hESC-derived Olig2 progenitors; test: Motor neuron differentiation of Olig2 progenitors (HB9 and Olig2 immunostaining); conditions: for cells expressing HB9: day 35, cultures with purmorphamine from day 24, with or without FGF2 10 ng/ml; for HB9 expression: day 24 to 35, combined with purmorphamine, FGF2 or EGF 10 ng/ml
Excerpt: as §3, §4, §5
FGF2 (10 ng/ml) was applied to the culture alongside purmorphamine at day 24 (following the appearance of Olig2, but before the differentiation of HB9+ motor neurons). […] Li et al., supra; and Li X & Zhang S, “In vitro differentiation of neural precursors from human embryonic stem cells,” Methods Mol. Biol. 331:169-177 (2006). […] Accordingly, a much larger population (55%) of Olig2 cells was present when FGF2 was present early on. RT-PCR analyses confirmed that Ngn2 and HB9 expression was repressed. Cultures with FGF2 alone (without the presence of SHH or purmorphamine) had few, if any, HB9+ motor neurons or Olig2-expressing progenitors (see FIGS. 4B, C).

[5] = system: hESC-derived Olig2 progenitors; test: Progenitor proliferation (Ki67 positive cells); conditions: 10 ng/ml, day 24 to 35
Excerpt: as §3
To determine pro-proliferation effects of FGF2, we used another mitogen, EGF, as a control. […] Thus, FGF2 appeared to increase the Olig2+ cells by preventing the differentiation of Olig2 progenitors to motor neurons.

[6] = system: hESC-derived Olig2 progenitors; test: RT-PCR gene expression in progenitor cultures
[7] = system: hESC-derived Olig2 progenitors; test: FACS analysis of OLIG2+ population; conditions: day 50, with FGF2 versus without FGF2
[8] = system: hESC-derived Olig2 progenitors; test: Differentiation of Olig2 progenitors to OPCs in glial differentiation medium (marker immunostaining); conditions: progenitors cultured in the presence of FGF2 throughout; 13-14 weeks

Molecule: CC1=C2C[C@H]3[C@@H](CC=C4C[C@@H](O)CC[C@@]43C)[C@@H]2CC[C@]12O[C@@H]1C[C@H](C)CN[C@H]1[C@H]2C [cyclopamine]
- OLIG2/PDGFRa double positive OPCs [1]: rarely; also recorded: lack of OPCs
- PDGFRα+ OPCs (in words) [1]: few OPCs were present
- Olig2-expressing progenitors [2]: rarely; also recorded: blocked Olig2 transcription; also recorded: near absence of Olig2 cells
- OLIG2+/NKX2.2+ population [3]: not and few cells expressing Olig2 and/or Nkx2.2
- cells expressing Olig2 and/or Nkx2.2 [3]: near complete lack of cells expressing Olig2 and/or Nkx2.2

Molecule: c1ccc2c(Oc3nc(Nc4ccc(N5CCOCC5)cc4)c4ncn(C5CCCCC5)c4n3)cccc2c1 [purmorphamine]
- cells expressing HB9 [4]: 40-50%
- timing of OPC differentiation (PDGFRα, NG2, Sox10) [1]: did not speed up the differentiation of OPCs
- OLIG2/PDGFRa double positive OPCs [1]: present
- PDGFRα+ OPCs ([1]; treated day 35 to 50, examined day 100): appear
- concentration that produced the highest proportion of Olig2 progenitors [2]: 1 µM
- induction of Olig2 compared with SHH ([2]; purmorphamine 1 uM replacing SHH, p<0.0001): earlier and more potent induction of Olig2
- earlier induction of Olig2 expression than SHH ([2]; purmorphamine versus SHH): 4 to 5 days
- Olig2-expressing progenitors [2]: present
- OLIG2+/NKX2.2+ population [3]: present
- more Olig2/Nkx2.2 double positive cells ([3]; purmorphamine 1 uM day 35 to 50, day 50, printed comparator: cultures with cyclopamine): about 40%
- cells expressing Olig2 and/or Nkx2.2 [3]: co-express; also recorded: sustained Olig2 progenitor population

Molecule: EGF: mitogen used as a control for FGF2 (Sigma)
- proportion of Olig2 positive cells ([4]; EGF 10 ng/ml, day 24 to 35): did not increase
- HB9 expression [4]: moderately decreases
- timing of OPC differentiation (PDGFRα, NG2, Sox10) [1]: did not speed up the differentiation of OPCs
- proportion of Ki67 positive cells [5]: does not selectively alter; also recorded: did not increase

Molecule: FGF2: Fibroblast Growth Factor 2 (R&D)
- population of Olig2 cells ([4]; FGF2 10 ng/ml with purmorphamine from day 24, day 35): 55%
- HB9+ motor neurons or Olig2-expressing progenitors ([4]; FGF2 alone, without SHH or purmorphamine): few, if any
- HB9-expressing cells ([4]; FGF2 removed at day 35 and RA added back, one to two weeks later): hardly any
- HB9 expression [4]: blocks HB9 expression; also recorded: nearly completely blocked HB9 expression
- cells expressing HB9 [4]: less than 5%
- increase of OLIG2+ cells ([4]; with presence of Pur, 12 days from day 24): about 50%
- total cells generated ([1]; FGF2 with purmorphamine days 24-35 versus purmorphamine alone): substantially more total cells
- timing of OPC differentiation (PDGFRα, NG2, Sox10) [1]: did not speed up the differentiation of OPCs
- PDGFRα+ OPCs (in words) [1]: similar
- Ngn2 and HB9 expression (RT-PCR) ([6]; FGF2 10 ng/ml with purmorphamine, day 24 to 35): repressed
- expression of NFIA (RT-PCR) ([6]; FGF2 from day 35): promoted the expression of NFIA
- expression of Olig2 (RT-PCR) ([6]; FGF2 from day 35 in presence of purmorphamine): compromises the effect of purmorphamine to maintain expression of Olig2
- SHH transcript (quantitative RT-PCR) ([6]; day 50, FGF2 from day 35): decreases SHH by half
- transcription of GLI2 and GLI3 (quantitative RT-PCR) ([6]; day 50, FGF2 from day 35): increases
- decrease in the OLIG2+ population (FACS) [7]: 10%
- proportion of Ki67 positive cells [5]: does not selectively alter
- GFAP+ astrocytes [8]: 35%
- PDGFRa+ OPCs [8]: 4%
- βIII tubulin+ neurons [8]: 53%
- Nkx2.2 progenitors ([3]; FGF2 continued from day 35, 7th week): did not appear to change significantly
- Olig2/Nkx2.2 double positive cells ([3]; FGF2 continued from day 35, examined day 50 (7th week)): decreased; also recorded: few double positive cells

Molecule: sonic hedgehog [SHH]
- timing of OPC differentiation (PDGFRα, NG2, Sox10) [1]: did not speed up the differentiation of OPCs
- OLIG2/PDGFRa double positive OPCs [1]: present
- onset of Olig2 expression ([2]; one week following SHH treatment): ~23 day of differentiation
- Olig2-expressing progenitors [2]: present
- cells expressing Olig2 and/or Nkx2.2 [3]: co-express; also recorded: sustained Olig2 progenitor population

B1: Noggin: a BMP antagonist known to promote OPC differentiation (protein, UniProt Q13253 28-232, looked up)
Noggin: QHYLHIRPAPSDNLPLVDLIEHPDPIFDPKEKDLNETLLRSLLGGHYDPGFMATSPPEDRPGGGGGAAGGAEDLAELDQLLRQRPSGAMPSEIKGLEFSEGLAQGKKQRLSKKLRRKLQMWLWSQTFCPVLYAWNDLGSRFWPRYVKVGSCFSKRSCSVPEGMVCKPSKSVHLTVLRWRCQRRGGQRCGWIPIQYPIISECKCSC
- timing of OPC differentiation ([1]; Noggin 100 ng/ml at day 35 together with SHH 100 ng/ml): did not result in earlier differentiation of OPCs
